Data reported in US11220503B2, “Phthalazine derivatives, preparation method, pharmaceutical composition and usage thereof” (Shanghai SIMR Biotech Co., Ltd., priority 2015, dated 2022).

Columns and labels:
[1] = target: T1, α5β3γ2 receptor (Homo sapiens, UniProt P18507+P31644); experiment: Supplementary data for cell level screening: new electrophysiology method (I. Lecker et al); assay type: cell-based
T1 construct: expressed in transfected cells; host or cells: HEK-293 (stably transfected)

[2] = Compound tissue distribution (brain/plasma); assay type: in vivo; conditions: brain and plasma, po; rat, 1 mg/kg p.o. in 5% DMSO+70% PEG400+25% H2O, one hour; read-out: Brain/Plasma ratio
Experimental: The distribution ratio of blood brain tissue was calculated by comparing the concentration of compound in rat plasma and brain tissue. The experimental animals were divided into two groups, the plasma group and the brain group, each with three. To measure brain to plasma ratio, rats were administed compounds in 50% PEG400 p.o. at a dose of 10 mg compound to be tested/kg. One hour later, plasma and brain samples were taken. Concentrations of compounds in brain and plasma were detected using LC-MS/MS-AJ (Triple Quad 5500) assay and analyzed using Phoenix WinNonlin.
We also measured the brain to plasma ratio of compound #24. The experimental animals were divided into two groups, the plasma group and the brain group, each with three. To measure the brain to plasma ratio, Rats were administered compounds (1 mg/kg in 5% DMSO+70% PEG400+25% H2O p.o.). One hour later, plasma and brain samples were taken. Concentrations of compounds in brain and plasma were detected using a LC-MS/MS-AJ (Triple Quad 5500) assay and analyzed using Phoenix WinNonlin.

[3] = system: α5-GABAA receptor; conditions: cited from earlier work

T1 sequence (P31644 32-462): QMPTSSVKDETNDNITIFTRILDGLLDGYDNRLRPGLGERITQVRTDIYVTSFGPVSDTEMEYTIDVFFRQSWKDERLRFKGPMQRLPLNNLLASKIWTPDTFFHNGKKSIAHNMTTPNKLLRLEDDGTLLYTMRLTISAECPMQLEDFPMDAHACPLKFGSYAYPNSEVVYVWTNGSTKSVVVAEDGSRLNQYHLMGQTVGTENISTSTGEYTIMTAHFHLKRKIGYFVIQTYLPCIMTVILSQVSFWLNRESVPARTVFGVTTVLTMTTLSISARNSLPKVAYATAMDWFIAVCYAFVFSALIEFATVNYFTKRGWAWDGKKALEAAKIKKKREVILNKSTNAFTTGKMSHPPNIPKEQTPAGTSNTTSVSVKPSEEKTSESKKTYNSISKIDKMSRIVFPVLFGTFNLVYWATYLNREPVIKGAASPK
T1 sequence (P28472 26-473 isoform P28472-2 partner limits assumed): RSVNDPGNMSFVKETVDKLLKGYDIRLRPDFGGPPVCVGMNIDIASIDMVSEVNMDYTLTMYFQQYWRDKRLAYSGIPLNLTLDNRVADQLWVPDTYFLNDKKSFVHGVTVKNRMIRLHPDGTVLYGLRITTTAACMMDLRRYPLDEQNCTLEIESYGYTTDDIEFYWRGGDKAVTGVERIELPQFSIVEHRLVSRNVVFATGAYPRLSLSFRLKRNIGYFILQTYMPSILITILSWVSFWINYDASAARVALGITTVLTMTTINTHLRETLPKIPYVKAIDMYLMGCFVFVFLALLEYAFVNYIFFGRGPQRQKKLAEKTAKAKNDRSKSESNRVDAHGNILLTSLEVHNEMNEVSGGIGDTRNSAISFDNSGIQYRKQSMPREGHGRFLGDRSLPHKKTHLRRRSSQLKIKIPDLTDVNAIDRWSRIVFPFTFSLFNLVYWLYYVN
T1 sequence (P18507 40-475): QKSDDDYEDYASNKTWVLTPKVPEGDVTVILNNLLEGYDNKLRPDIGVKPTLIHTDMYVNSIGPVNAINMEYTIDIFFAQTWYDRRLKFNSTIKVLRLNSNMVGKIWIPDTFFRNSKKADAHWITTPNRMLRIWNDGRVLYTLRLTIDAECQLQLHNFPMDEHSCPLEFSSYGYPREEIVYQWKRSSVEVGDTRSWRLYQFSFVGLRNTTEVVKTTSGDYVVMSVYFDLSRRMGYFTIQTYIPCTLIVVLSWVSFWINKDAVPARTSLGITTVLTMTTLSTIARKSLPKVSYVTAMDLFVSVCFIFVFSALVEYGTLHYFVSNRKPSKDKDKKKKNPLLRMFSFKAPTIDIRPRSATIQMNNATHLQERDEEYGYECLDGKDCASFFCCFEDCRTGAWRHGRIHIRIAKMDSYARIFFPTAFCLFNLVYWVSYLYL

| Structure (SMILES) | Inverse agonism efficacy(%) ([1]; new method, CsCl intracellular solution, GABA 0.1˜0.3 CM, other procedures as previous method) | inverse agonism efficacy of the compound/α5IA inverse agonism efficacy ([1]; ratio to the α5IA reference run above in the table (r4 or r29)) | Kp at 1 h [2] | blocking of the binding of (^3H) R0-15-1788 in brain [3] |
| --- | --- | --- | --- | --- |
| Cc1cc(-c2nnc3c4ccccc4c(OCc4ccc(C(=O)NCC5CC5)cn4)nn23)no1 [Compound 24, N-(cyclopropylmethyl)-6-(((3-(5-methylisoxazol-3-yl)-[1,2,4]triazolo[3,4-a]phthalazin-6-yl)oxy)methyl)nicotinamide] | −34.5 | 1.855 | 0.044 |  |
| Cc1cc(-c2nncc3c(C(C)(C)C)c(OCc4ncnn4C)nn23)no1 [MRK016, 3-tert-butyl-7-(5-methylisoxazol-3-yl)-2-(1-methyl-1H-1,2,4-triazol-5-ylmethoxy) pyrazolo[1,5-d][1,2,4]triazine] |  |  |  | could efficiently block the binding |
| Cn1ncnc1COc1nn2c(-c3cc(CO)on3)nncc2c1C(C)(C)C [MRK016-M3] |  |  |  | almost no blocking effect |
